In patent US10869864B2, “Combinations for the treatment of cancer” (IGNYTA, INC., priority 2015, dated 2020):

Legend:
[1] = system: KM-12 TPM3-NTRK1 G595R cells; experiment: Tumor growth in athymic nu/nu mice implanted subcutaneously with KM-12 TPM3-NTRK1 G595R cells; type: in vivo; conditions: for Average tumor volume / Percent tumor growth inhibition (% TGI): entrectinib 60 mg/kg, trametinib 1 mg/kg, p.o. q.d.
Protocol: Athymic nu/nu mice, 6-7 weeks old, female mice were implanted subcutaneously (right flank) with 2 million KM-12 TPM3-NTRK1 G595R cells/mouse. Animals were randomized once the mean tumor volume reached ˜150 mm^3.
Trametinib in vivo oral dosing solution was made by dissolving trametinib in a solution of DMSO (Lot #: SHBG1596V, D8418-100ML, Sigma), PEG 400 (Lot #: MKBX3961V, 202398-500G, Sigma), Tween 80 (Lot #: MKB58228V, P4780-100ML, Sigma) and water. The final concentration of trametinib was 0.1 mg/mL and the amounts of each component in the resulting solution were 3.3% DMSO, 16.7% PEG 400, 15% Tween 80 and 65% water, with the water being added just prior to dosing.
Athymic nu/nu female mice between 6-7 weeks of age were ordered from Charles River. Animals were allowed to acclimate 3 days prior to the start of the study (e.g., cell implantation). Animals were housed in irradiated, individual HEPA ventilated cages (Innocage® IVC, Innovive USA) on a 12-hour light-dark cycle at 68-79° F. and 30-70% humidity. Animals were provided with irradiated chow (Teklad 2920X) and acidified drinking water (Innovive) ad libitum as per the animal care and use protocol established at Explora Biolabs (Ignyta ACUP # EB15-050). Animals were identified by uniquely numbered ear-tags.
(§1) KM12 cells were cultured, harvested, and suspended in 1:1 FBS free culture media:martigel at a concentration of 10 million cells/mL. Cells were implanted under the skin on the right flank of each mouse on day 0. The implantation volume was 200 μL/mouse. Tumors grew until the mean tumor volume reached approximately 130 mm^3. On day 8 mice were randomized into 6 treatment groups (10 mice/group) and treatment began. […] The final treatment for all groups was administered on day 17, for a total of 10 doses. The final tumor and body weight measurements were taken on the final day of dosing, day 17.
(§2) Tumors measurements and body weights were collected 2×/week over the duration of the study. Tumor growth was assessed by caliper and tumor volumes were calculated using the equation (1). Animals with tumor volumes >2,000 mm^3 were removed from study. Volume (mm^3)=[length (mm)×width (mm)×width (mm)]/2 (1)
The percentage of tumor growth inhibition (% TGI) was calculated for each treatment group at each tumor measurement. The % TGI values were calculated using equation (2) below, where TVvehicle is the tumor volume for the vehicle-treated animals at a specified time point, TVinitial is the initial tumor volume at the start of the treatment and TVtreatment is the tumor volume of the treatment group at a specified end-point time. Differences in tumor volumes were assessed by ANOVA using GraphPad Prism (version 6.07, GraphPad Software, Inc.). % TGI=[(TVvehicle−TVtreatment)/(TVvehicle−TVinitial)]×100

[2] = Tolerability, body weight and toxicity in the KM-12 TPM3-NTRK1 G595R mouse study; conditions: any animals receiving trametinib 1 mg/kg p.o. q.d.
Protocol: as §1, §2

[3] = day 8 after cell implantation (randomization, treatment began)
[4] = day 8 after cell implantation (treatment began)
[5] = day 17 after cell implantation (10 doses)
[6] = day 17 after cell implantation (final day, 10 doses)

Row | SMILES | Average tumor volume [1, 3] [mm^3] | Percent tumor growth inhibition (% TGI) [1, 4] [%] | Average tumor volume ([1]; day 11 after cell implantation) [mm^3] | Percent tumor growth inhibition (% TGI) ([1]; day 11 after cell implantation) [%] | Average tumor volume ([1]; day 14 after cell implantation) [mm^3] | Percent tumor growth inhibition (% TGI) ([1]; day 14 after cell implantation) [%] | Percent tumor growth inhibition (% TGI) [1, 5] [%] | Average tumor volume [1, 6] [mm^3] | Toxicity (evaluated based on body weight loss) [2] | tumor volume difference from vehicle, two-way ANOVA ([1]; by day 14, p<0.05) | tumor volume difference from vehicle, one-way ANOVA ([1]; days 14 and 17)
1 | CN1CCN(c2ccc(C(=O)Nc3n[nH]c4ccc(Cc5cc(F)cc(F)c5)cc34)c(NC3CCOCC3)c2)CC1 [Entrectinib, N-[5-(3,5-difluorobenzyl)-1H-indazol-3-yl]-4-(4-methyl-piperazin-1-yl)-2-(tetrahydro-pyran-4-ylamino)-benzamide] | 148.2 | 100.0 | 403.2 | −15.1 | 934.5 | −4.5 | −11.6 | 2057.8 | – | – | –
2 | CC(=O)Nc1cccc(-n2c(=O)n(C3CC3)c(=O)c3c(Nc4ccc(I)cc4F)n(C)c(=O)c(C)c32)c1 [Trametinib] | 146.7 | 100.0 | 254.8 | 51.5 | 373.1 | 70.0 | 76.7 | 544.9 | Toxicity was observed | significantly different from vehicle | Differences were found
